In patent publication US11912693B2, “Compounds for modulating S1P1 activity and methods of using the same” (TREVENA, INC., priority 2017, dated 2024):

What was measured:
[1] = target: T1, human sphingosine-1-phosphate receptor 1 (S1P1) (Homo sapiens (Human), UniProt P21453); test: Inhibition of cAMP production (HTRF cAMP HiRange), S1P1 CHO-K1 cells; assay type: cell-based; conditions: for hS1P1 cAMP pEC50: inhibition of cAMP production, S1P1 CHO-K1 cells; for Emax: CHO-K1, efficacy (SPAN) normalized to fingolimod, read-out: hS1P1 cAMP SPAN
Procedure, shortened: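 CHO-K1 cells stably co-expressing human S1P1 (C-terminal Prolink tag) and EA-β-arrestin2 were grown in AssayComplete Media 6 at 37° C. and 5% CO2, plated, and incubated overnight. Agonist-driven inhibition of intracellular cAMP was read by TR-FRET with the HTRF cAMP HiRange kit on a PheraStar reader. Potency is pEC50, and efficacy (SPAN) is normalized to fingolimod.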
Target sequence in this assay (P21453 whole entry, looked up): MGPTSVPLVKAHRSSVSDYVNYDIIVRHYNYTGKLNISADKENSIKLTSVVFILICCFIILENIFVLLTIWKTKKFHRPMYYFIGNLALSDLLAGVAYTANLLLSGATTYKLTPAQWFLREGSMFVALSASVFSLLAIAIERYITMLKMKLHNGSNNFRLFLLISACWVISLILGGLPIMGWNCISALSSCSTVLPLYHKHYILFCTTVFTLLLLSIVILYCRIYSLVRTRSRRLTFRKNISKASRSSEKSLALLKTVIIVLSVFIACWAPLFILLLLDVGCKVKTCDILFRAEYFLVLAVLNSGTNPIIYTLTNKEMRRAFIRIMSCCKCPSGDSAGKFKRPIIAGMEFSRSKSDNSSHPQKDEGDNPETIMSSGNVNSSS

[2] = target: T1, human sphingosine-1-phosphate receptor 1 (S1P1); test: β-Arrestin2 recruitment assay (PathHunter), S1P1 CHO-K1 cells; assay type: cell-based; conditions: for hS1P1 B-arrestin2 pEC50: β-arrestin2 recruitment, S1P1 CHO-K1 cells; for Emax: CHO-K1, efficacy (SPAN) normalized to fingolimod, read-out: hS1P1 B-arrestin2 SPAN
Procedure, shortened: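 Enzyme-fragment complementation read-out: agonist-driven β-arrestin2 binding to ProLink-tagged human S1P1 in stable CHO-K1 cells restores β-galactosidase, measured 1 h at room temperature after a 60 min 37° C. compound incubation. Potency as pEC50, efficacy relative to fingolimod (SPAN).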
Target sequence in this assay (P21453 whole entry, looked up): as above
Target sequence in this assay (P32121 whole entry partner, looked up): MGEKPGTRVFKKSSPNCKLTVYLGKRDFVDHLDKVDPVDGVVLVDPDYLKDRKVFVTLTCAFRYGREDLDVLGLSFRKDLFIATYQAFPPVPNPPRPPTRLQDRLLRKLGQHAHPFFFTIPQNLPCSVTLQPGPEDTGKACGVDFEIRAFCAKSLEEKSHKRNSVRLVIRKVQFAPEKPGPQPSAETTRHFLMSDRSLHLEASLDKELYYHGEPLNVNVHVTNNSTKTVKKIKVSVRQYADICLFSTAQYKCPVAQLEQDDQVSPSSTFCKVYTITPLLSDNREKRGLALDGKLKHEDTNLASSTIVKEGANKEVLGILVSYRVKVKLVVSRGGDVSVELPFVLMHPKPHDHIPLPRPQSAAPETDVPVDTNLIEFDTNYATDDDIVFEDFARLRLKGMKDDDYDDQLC

| hS1P1 cAMP pEC50 [1] | hS1P1 B-arrestin2 pEC50 [2] | Emax [1] [%] | Emax [2] [%] | Compound |
| --- | --- | --- | --- | --- |
| <6.5 | <5 |  |  | COc1ccccc1-c1nc(-c2ccc3c(c2)nnn3CC(C)(C)CO)no1 [Compound 525, 3-(5-(5-(2-methoxyphenyl)-1,2,4-oxadiazol-3-yl)-1H-benzo[d][1,2,3]triazol-1-yl)-2,2-dimethylpropan-1-ol] |
| <6.5 | <5 |  |  | CC(C)(CO)Cn1nnc2cc(-c3noc(-c4ccccc4Cl)n3)ccc21 [Compound 526, 3-(5-(5-(2-chlorophenyl)-1,2,4-oxadiazol-3-yl)-1H-benzo[d][1,2,3]triazol-1-yl)-2,2-dimethylpropan-1-ol] |
| <6.5 | <5 |  |  | CCc1ccccc1-c1nc(-c2ccc3c(c2)nnn3CC(C)(C)CO)no1 [Compound 527, 3-(5-(5-(2-ethylphenyl)-1,2,4-oxadiazol-3-yl)-1H-benzo[d][1,2,3]triazol-1-yl)-2,2-dimethylpropan-1-ol] |
| <6.5 | <5 |  |  | CC(C)(CO)Cn1nnc2cc(-c3noc(-c4ccncc4C(F)(F)F)n3)ccc21 [Compound 528, 2,2-dimethyl-3-(5-(5-(3-(trifluoromethyl)pyridin-4-yl)-1,2,4-oxadiazol-3-yl)-1H-benzo[d][1,2,3]triazol-1-yl)propan-1-ol] |
| <6.5 | >5 |  |  | CC(C)(CO)Cn1nnc2cc(-c3noc(-c4cnccc4C(F)(F)F)n3)ccc21 [Compound 529, 2,2-dimethyl-3-(5-(5-(4-(trifluoromethyl)pyridin-3-yl)-1,2,4-oxadiazol-3-yl)-1H-benzo[d][1,2,3]triazol-1-yl)propan-1-ol] |
| <6.5 | <5 |  |  | CCC1(CC)CC(=O)c2cc(-c3ncc(-c4ccccn4)cn3)ccc2O1 [Compound 530, 2,2-diethyl-6-(5-(pyridin-2-yl)pyrimidin-2-yl)chroman-4-one] |
| >6.5 | >5 | > 75 | < 75 | COc1cc(NC(C)=O)ccc1-c1noc(-c2ccc3c(c2)nnn3C(C)C)n1 [Compound 532, N-(3-methoxy-4-{5-[1-(propan-2-yl)-1H-1,2,3-benzotriazol-5-yl]-1,2,4-oxadiazol-3-yl}phenyl)acetamide] |
| <6.5 | <5 |  |  | COc1cc(NC(C)=O)ccc1-c1noc(-c2ccc3nonc3c2)n1 [Compound 533, N-{4-[5-(2,1,3-benzoxadiazol-5-yl)-1,2,4-oxadiazol-3-yl]-3-methoxyphenyl}acetamide] |
| <6.5 | <5 | < 75 | < 75 | COCCn1cc(-c2ccccc2C)cc1-c1ccc2c(c1)nnn2C(C)C [Compound 534, 5-[1-(2-methoxyethyl)-4-(2-methylphenyl)-1H-pyrrol-2-yl]-1-(propan-2-yl)-1H-1,2,3-benzotriazole] |
| <6.5 | >5 |  |  | CC1CC(=O)c2ccc(-c3nc(-c4cccnc4)no3)cc2O1 (stereo not drawn) [Compound 535, 2-methyl-7-[3-(pyridin-3-yl)-1,2,4-oxadiazol-5-yl]-3,4-dihydro-2H-1-benzopyran-4-one] |
| <6.5 | >5 |  |  | CC1CC(=O)c2ccc(-c3nc(-c4ccncc4)no3)cc2O1 (stereo not drawn) [Compound 536, 2-methyl-7-[3-(pyridin-4-yl)-1,2,4-oxadiazol-5-yl]-3,4-dihydro-2H-1-benzopyran-4-one] |
| >6.5 | >5 |  |  | CCC1(CC)CC(=O)c2cc(-c3nc(-c4cncc(C(N)=O)c4)no3)ccc2O1 [Compound 537, 5-(5-(2,2-diethyl-4-oxochroman-6-yl)-1,2,4-oxadiazol-3-yl)nicotinamide] |
| >6.5 | >5 |  |  | CCC1(CC)CC(=O)c2cc(-c3nc(-c4cncc(NC(C)=O)c4)no3)ccc2O1 [Compound 538, N-(5-(5-(2,2-diethyl-4-oxochroman-6-yl)-1,2,4-oxadiazol-3-yl)pyridin-3-yl)acetamide] |
| >6.5 | >5 |  |  | CCC1(CC)CC(=O)c2cc(-c3nc(-c4ccc5[nH]c(=O)[nH]c5c4)no3)ccc2O1 [Compound 539, 5-(5-(2,2-diethyl-4-oxochroman-6-yl)-1,2,4-oxadiazol-3-yl)-1H-benzo[d]imidazol-2(3H)-one] |
| <6.5 | <5 |  |  | Cc1nccnc1-c1nc(-c2ccc3c(c2)nnn3CC(C)(C)CO)no1 [Compound 540, 2,2-dimethyl-3-(5-(5-(3-methylpyrazin-2-yl)-1,2,4-oxadiazol-3-yl)-1H-benzo[d][1,2,3]triazol-1-yl)propan-1-ol] |
| <6.5 | <5 |  |  | Cc1ccncc1-c1nc(-c2ccc3c(c2)nnn3CC(C)(C)CO)no1 [Compound 541, 2,2-dimethyl-3-(5-(5-(4-methylpyridin-3-yl)-1,2,4-oxadiazol-3-yl)-1H-benzo[d][1,2,3]triazol-1-yl)propan-1-ol] |

| hS1P1 cAMP pEC50 [1] | hS1P1 B-arrestin2 pEC50 [2] | Emax [1] [%] | Emax [2] [%] | Compound |
| --- | --- | --- | --- | --- |
| <6.5 | >5 |  |  | CC(C)n1nnc2cc(-c3cc(-c4ccccc4F)c[nH]3)ccc21 [Compound 542, 5-[4-(2-fluorophenyl)-1H-pyrrol-2-yl]-1-(propan-2-yl)-1H-1,2,3-benzotriazole] |
| >6.5 | <5 | < 75 | < 75 | CC(C)n1nnc2cc(-c3c[nH]c(-c4ccccc4)c3)ccc21 [Compound 543, 5-(5-phenyl-1H-pyrrol-3-yl)-1-(propan-2-yl)-1H-1,2,3-benzotriazole] |
| <6.5 | >5 |  |  | CC(C)n1nnc2cc(-c3cc(-c4ccccc4)n(C)c3)ccc21 [Compound 544, 5-(1-methyl-5-phenyl-1H-pyrrol-3-yl)-1-(propan-2-yl)-1H-1,2,3-benzotriazole] |
| >6.5 | >5 | > 75 | > 75 | CCC1(CC)CC(=O)c2cc(-c3nc(-c4cncc(NS(C)(=O)=O)c4)no3)ccc2O1 [Compound 545, N-(5-(5-(2,2-diethyl-4-oxochroman-6-yl)-1,2,4-oxadiazol-3-yl)pyridin-3-yl)methanesulfonamide] |
| >6.5 | >5 |  |  | CCC1(CC)CC(=O)c2cc(-c3nc(-c4cnccc4C)no3)ccc2O1 [Compound 549, 2,2-diethyl-6-(3-(4-methylpyridin-3-yl)-1,2,4-oxadiazol-5-yl)chroman-4-one] |
| <6.5 | >5 |  |  | CCC1(CC)CC(=O)c2cc(-c3nc(-c4ccc(C)nc4)no3)ccc2O1 [Compound 550, 2,2-diethyl-6-(3-(6-methylpyridin-3-yl)-1,2,4-oxadiazol-5-yl)chroman-4-one] |
| >6.5 | >5 |  |  | CCC1(CC)CC(=O)c2cc(-c3nc(-c4cncc(F)c4)no3)ccc2O1 [Compound 551, 2,2-diethyl-6-(3-(5-fluoropyridin-3-yl)-1,2,4-oxadiazol-5-yl)chroman-4-one] |
| <6.5 | <5 |  |  | CCC1(CC)CC(=O)c2cc(-c3ncc(-c4ccnc(O)c4)cn3)ccc2O1 [Compound 552, 2,2-diethyl-6-(5-(2-hydroxypyridin-4-yl)pyrimidin-2-yl)chroman-4-one] |
| <6.5 | >5 |  |  | CCC1(CC)CC(=O)c2cc(-c3nc(-c4cccc(OC)n4)no3)ccc2O1 [Compound 553, 2,2-diethyl-6-[3-(6-methoxypyridin-2-yl)-1,2,4-oxadiazol-5-yl]-3,4-dihydro-2H-1-benzopyran-4-one] |
| >6.5 | >5 | > 75 | > 75 | CCC1(CC)CC(=O)c2cc(-c3nc(-c4ccsc4)no3)ccc2N1 [Compound 554, 2,2-diethyl-6-(3-(thiophen-3-yl)-1,2,4-oxadiazol-5-yl)-2,3-dihydroquinolin-4(1H)-one] |
| >6.5 | >5 |  |  | CCC1(CC)CC(=O)c2cc(-c3nc(-c4ccnc(C(N)=O)c4)no3)ccc2O1 [Compound 555, 4-(5-(2,2-diethyl-4-oxochroman-6-yl)-1,2,4-oxadiazol-3-yl)picolinamide] |
| >6.5 | >5 |  |  | CCC1(CC)CC(=O)c2cc(-c3nc(-c4ccnc(NS(C)(=O)=O)c4)no3)ccc2O1 [Compound 556, N-(4-(5-(2,2-diethyl-4-oxochroman-6-yl)-1,2,4-oxadiazol-3-yl)pyridin-2-yl)methanesulfonamide] |
| <6.5 | >5 |  |  | CCC1(CC)CC(=O)c2cc(-c3nc(-c4cncc(C(F)(F)F)c4)no3)ccc2O1 [Compound 557, 2,2-diethyl-6-(3-(5-(trifluoromethyl)pyridin-3-yl)-1,2,4-oxadiazol-5-yl)chroman-4-one] |
| >6.5 | >5 |  |  | CCC1(CC)CC(=O)c2cc(-c3noc(-c4cccnc4)n3)ccc2O1 [Compound 559, 2,2-diethyl-6-(5-(pyridin-3-yl)-1,2,4-oxadiazol-3-yl)chroman-4-one] |
| >6.5 | >5 |  |  | Cc1nc2cc(-c3nnc(-c4ccc(NCC(F)F)c(C#N)c4)o3)ccc2[nH]1 [Compound 561, 2-[(2,2-difluoroethyl)amino]-5-[5-(2-methyl-1H-1,3-benzodiazol-5-yl)-1,3,4-oxadiazol-2-yl]benzonitrile] |
